The source of these data is ChEMBL document CHEMBL2401644, “Synthesis and biological evaluation of new chlorin derivatives as potential photosensitizers for photodynamic therapy” (Bioorg Med Chem, 2013).

For series [1], the system named is Mus musculus. The series can be described thus: Biodistribution in tumor of BALB/c mouse allografted with mouse C26 cells at 10 mg/kg, iv after 1 to 24 hrs. It is filed as ADME, organism-based, Neoplasm. Further details: dose 10 mg/kg, route intravenous. The note with it: in vivo.
A short description of series [2]: Solubility of the compound in water. Format: physicochemical.
Series [3] concerns C26. The series can be described thus: Antitumor activity against mouse C26 cells allografted in BALB/c mouse assessed as reduction in nuclei number of tumor cells at 10 mg/kg, iv administered for 3 hrs followed by light irradiation measured after 3 days by hematoxylin and eosin staining relative to control. Details: dose 10 mg/kg. It is filed as functional, organism-based.
Series [4] deals with Serum. The series can be described thus: Biodistribution in serum of BALB/c mouse allografted with mouse C26 cells at 10 mg/kg, iv after 24 hrs. Format: ADME, organism-based. Details: dose 10 mg/kg, route intravenous. To be noted: in vivo.
In series [5] the test system is Zone of skin. Description: Biodistribution in skin of BALB/c mouse allografted with mouse C26 cells at 10 mg/kg, iv after 24 hrs. It is filed as ADME, organism-based. Further details: dose 10 mg/kg, route intravenous. To be noted: in vivo.
A short description of series [6]: Biodistribution in serum of BALB/c mouse allografted with mouse C26 cells at 10 mg/kg, iv after 6 hrs. It is filed as ADME, organism-based. Details: dose 10 mg/kg, route intravenous. The note with it: read-out: Drug uptake.
Series [7] concerns Muscle tissue. The series can be described thus: Biodistribution in muscle of BALB/c mouse allografted with mouse C26 cells at 10 mg/kg, iv after 3 hrs. Format: ADME, organism-based. Further details: dose 10 mg/kg, route intravenous. The note with it: in vivo.
The nature of series [8]: Biodistribution in serum of BALB/c mouse allografted with mouse C26 cells at 10 mg/kg, iv after 1 hr. Format: ADME, organism-based. The note with it: read-out: Drug uptake. Further details: dose 10 mg/kg, route intravenous.
For series [9], the system named is Liver. Description: Biodistribution in liver of BALB/c mouse allografted with mouse C26 cells at 10 mg/kg, iv after 24 hrs. It is filed as ADME, organism-based. Details: dose 10 mg/kg, route intravenous. The note with it: in vivo.
Series [10] relates to Muscle tissue. The series can be described thus: Biodistribution in muscle of BALB/c mouse allografted with mouse C26 cells at 10 mg/kg, iv after 24 hrs. It is filed as ADME, organism-based. Further details: dose 10 mg/kg, route intravenous. To be noted: in vivo.
The test system of series [11] is Liver. Description: Biodistribution in liver of BALB/c mouse allografted with mouse C26 cells at 10 mg/kg, iv after 3 hrs. Format: ADME, organism-based. Details: dose 10 mg/kg, route intravenous. To be noted: in vivo.
For series [12], the system named is Spleen. Description: Biodistribution in spleen of BALB/c mouse allografted with mouse C26 cells at 10 mg/kg, iv after 3 hrs. To be noted: in vivo. Details: dose 10 mg/kg, route intravenous. It is filed as ADME, organism-based.
The test system of series [13] is Lung. The series can be described thus: Biodistribution in lung of BALB/c mouse allografted with mouse C26 cells at 10 mg/kg, iv after 3 hrs. It is filed as ADME, organism-based. Details: dose 10 mg/kg, route intravenous. To be noted: in vivo.
Series [14] deals with C26. The series can be described thus: Antitumor activity against mouse C26 cells allografted in BALB/c mouse assessed as sparsely distributed cell nuclei of tumor cells at 10 mg/kg, iv administered for 3 hrs followed by light irradiation measured after 3 days by hematoxylin and eosin staining relative to control. Format: functional, organism-based. Further details: dose 10 mg/kg.

Series [15] has as its system Kidney. Description: Biodistribution in kidney of BALB/c mouse allografted with mouse C26 cells at 10 mg/kg, iv after 3 hrs. It is filed as ADME, organism-based. Details: dose 10 mg/kg, route intravenous. To be noted: in vivo.
Series [16] can be described thus: Biodistribution in serum of BALB/c mouse allografted with mouse C26 cells at 10 mg/kg, iv after 3 hrs. It is filed as ADME, organism-based. Further details: dose 10 mg/kg, route intravenous. The note with it: read-out: Drug uptake.
In series [17] the test system is Lung. The series can be described thus: Biodistribution in lung of BALB/c mouse allografted with mouse C26 cells at 10 mg/kg, iv after 24 hrs. To be noted: in vivo. It is filed as ADME, organism-based. Further details: dose 10 mg/kg, route intravenous.
For series [18], the system named is C26. Description: Antitumor activity against mouse C26 cells allografted in BALB/c mouse assessed as poor nuclei staining of tumor cells at 10 mg/kg, iv administered for 3 hrs followed by light irradiation measured after 3 days by hematoxylin and eosin staining relative to control. It is filed as functional, organism-based. Further details: dose 10 mg/kg.
Series [19] concerns Brain. Description: Biodistribution in brain of BALB/c mouse allografted with mouse C26 cells at 10 mg/kg, iv after 24 hrs. Format: ADME, organism-based. Further details: dose 10 mg/kg, route intravenous. The note with it: in vivo.
Series [20] deals with C26. Description: Antitumor activity against mouse C26 cells allografted in BALB/c mouse at 10 mg/kg, iv followed by light irradiation measured after 3 to 7 days. It is filed as functional, organism-based. Details: dose 10 mg/kg.
Series [21] relates to Mus musculus. Description: Toxicity against BALB/c mouse allografted with mouse C26 cells assessed as cellular damage in kidney at 10 mg/kg, iv administered for 3 hrs followed by irradiation measured after 3 days by hematoxylin and eosin staining. Format: organism-based. Further details: dose 10 mg/kg, route intravenous. To be noted: in vivo, 72 h.
Series [22] relates to Brain. The series can be described thus: Biodistribution in brain of BALB/c mouse allografted with mouse C26 cells at 10 mg/kg, iv after 3 hrs. Format: ADME, organism-based. Further details: dose 10 mg/kg, route intravenous. To be noted: in vivo.
The nature of series [23]: Biodistribution in tumor of BALB/c mouse allografted with mouse C26 cells at 10 mg/kg, iv after 3 hrs. Details: dose 10 mg/kg, route intravenous. To be noted: read-out: Drug uptake. It is filed as ADME, organism-based, Neoplasm.
Series [24] relates to C26. The series can be described thus: Antitumor activity against mouse C26 cells allografted in BALB/c mouse assessed as reduction in nuclei size of tumor cells at 10 mg/kg, iv administered for 3 hrs followed by light irradiation measured after 3 days by hematoxylin and eosin staining relative to control. Format: functional, organism-based. Further details: dose 10 mg/kg.

In series [25] the test system is Spleen. The series can be described thus: Biodistribution in spleen of BALB/c mouse allografted with mouse C26 cells at 10 mg/kg, iv after 24 hrs. It is filed as ADME, organism-based. Details: dose 10 mg/kg, route intravenous. The note with it: in vivo.
For series [26], the system named is Zone of skin. Description: Biodistribution in skin of BALB/c mouse allografted with mouse C26 cells at 10 mg/kg, iv after 3 hrs. Format: ADME, organism-based. The note with it: in vivo. Further details: dose 10 mg/kg, route intravenous.
Series [27] relates to Kidney. The series can be described thus: Biodistribution in kidney of BALB/c mouse allografted with mouse C26 cells at 10 mg/kg, iv after 24 hrs. It is filed as ADME, organism-based. Further details: dose 10 mg/kg, route intravenous. To be noted: in vivo.
In series [28] the test system is Mus musculus. The series can be described thus: Toxicity against BALB/c mouse allografted with mouse C26 cells assessed as cellular damage in liver at 10 mg/kg, iv administered for 3 hrs followed by irradiation measured after 3 days by hematoxylin and eosin staining. It is filed as organism-based. Details: dose 10 mg/kg, route intravenous. To be noted: in vivo, 72 h.

Series [29] deals with Serum. Description: Biodistribution in serum of BALB/c mouse allografted with mouse C26 cells at 10 mg/kg, iv after 1 to 24 hrs. To be noted: in vivo. Further details: dose 10 mg/kg, route intravenous. Format: ADME, organism-based.
In series [30] the test system is Liver. Description: Biodistribution in liver of BALB/c mouse allografted with mouse C26 cells at 10 mg/kg, iv after 1 to 24 hrs. The note with it: in vivo. It is filed as ADME, organism-based. Details: dose 10 mg/kg, route intravenous.

One may read the solubility as the concentration that dissolves in the medium under given conditions. The low end stands for a poorly soluble substance, the high end for a readily soluble substance.

The source made the active and inactive calls. The calls are words filed in the database; no cut-off is given here.

For the compound `C=Cc1c(C)c2cc3nc(cc4[nH]c(cc5nc(cc1[nH]2)C(C)(O)/C5=C\CO)c(C)c4CCC(=O)[O-])C(CCC(=O)[O-])=C3C.[Na+].[Na+]` (stereo unspecified), the Drug uptake entry in the series with Mus musculus [1] is “Not Active”. This compound also showed a solubility in [2] of 10000 µg/mL.

On to `C=Cc1c(C)c2cc3nc(cc4[nH]c(cc5nc(cc1[nH]2)C(C)(O)/C5=C\C=N/OCC)c(C)c4CCC(=O)N(CC(=O)[O-])CC(=O)[O-])C(CCC(=O)N(CC(=O)[O-])CC(=O)[O-])=C3C.[Na+].[Na+].[Na+].[Na+]` (stereo unspecified), for which the result with C26 [3], in the series on C26 [14], in the series with C26 [18] and in the series with C26 [24] was Active. In addition, the Drug uptake entry is given as “Not Active” in the series on Serum [4]; “Not Active” in the series with Zone of skin [5]; “Active” in the series with Muscle tissue [7]; “Not Active” in the series with Liver [9]; “Not Active” in the series on Muscle tissue [10]; “Active” in the series on Liver [11]. The Drug uptake entry in the series on Spleen [12] is given as “Active”; in the series on Lung [13] it was “Active”; in the series with Kidney [15] it was “Active”; in the series on Lung [17], “Not Active”; in the series with Brain [19] it was “Not Active”; in the series with Brain [22] it was “Active”. In addition, the Drug uptake entry in the series with Spleen [25] was “Not Active”; in the series on Zone of skin [26] it was “Active”; in the series on Kidney [27], “Not Active”; in the series with Mus musculus [1] it was “Active”. For the same compound, the concentration at 6 h in [6] worked out at 3400 ng/g. The concentration at 1 h in series [8] came out at 17200 ng/g. The concentration at 3 h came out at 8400 ng/g in series [16] and 690 ng/g in series [23]. Also, the TGI result in the series with C26 [20] was “Active”. The Activity entry in the series on Mus musculus [21] and in the series with Mus musculus [28] was “Non-toxic” throughout. This compound returned a solubility in series [2] of 100000 µg/mL.

In the case of `C=Cc1c(C)c2cc3nc(cc4[nH]c(cc5nc(cc1[nH]2)C(C)(O)/C5=C\C=N/OCC)c(C)c4CCC(=O)[O-])C(CCC(=O)[O-])=C3C.[Na+].[Na+]` (stereo unspecified), the Drug uptake entry with Serum [29], with Liver [30] and with Mus musculus [1] was “Active” in each case. The concentration at 1 h in [8] worked out at 24200 ng/g. In series [16], the concentration at 3 h stood at 5900 ng/g. In series [2], this compound returned a solubility of 10000 µg/mL.
